Literature values as cited in US20100119604A1, “Solid drug formulation and device for storage and controlled delivery thereof” (BOSTON SCIENTIFIC SCIMED, INC., priority 2003, published 2010).
Structures can show the parent of a compound that is named as a salt.

Settings: daily exposure limit of excipient / residual solvent per ICH Guideline Q3C

| Compound | Daily limit |
| --- | --- |
| CC(Cl)(Cl)Cl [1,1,1-Trichloroethane] | 15 mg |
| ClC=C(Cl)Cl [1,1,2-Trichloroethene] | 0.8 mg |
| C=C(Cl)Cl [1,1-Dichloroethene] | 0.08 mg |
| ClCCCl [1,2-Dichloroethane] | 0.05 mg |
| COCCOC [1,2-Dimethoxyethane] | 1.0 mg |
| CCOCCO [2-Ethoxyethanol] | 1.6 mg |
| COCCO [2-Methoxyethanol] | 0.5 mg |
| CC(=O)O [Acetic acid] | 50 mg |
| CC(C)=O [Acetone] | 50 mg |
| CC#N [Acetonitrile] | 4.1 mg |
| COc1ccccc1 [Anisole] | 50 mg |
| c1ccccc1 [Benzene] | 0.02 mg |
| CCCCOC(C)=O [Butyl acetate] | 50 mg |
| ClC(Cl)(Cl)Cl [Carbon tetrachloride] | 0.04 mg |
| Clc1ccccc1 [Chlorobenzene] | 3.6 mg |
| CC(C)c1ccccc1 [Cumene] | 50 mg |
| C1CCCCC1 [Cyclohexane] | 38.8 mg |
| ClCCl [Dichloromethane] | 6.0 mg |
| C[S+](C)[O-] [Dimethyl sulfoxide] | 50 mg |
| CCO [Ethanol] | 50 mg |
| CCOCC [Ethyl ether] | 50 mg |
| CCOC=O [Ethyl formate] | 50 mg |

| Compound | Daily limit |
| --- | --- |
| OCCO [Ethyleneglycol] | 6.2 mg |
| NC=O [Formamide] | 2.2 mg |
| O=CO [Formic acid] | 50 mg |
| CCCCCO [Formulation 1-Pentanol, 1-Pentanol] | 50 mg |
| CCCO [Formulation 1-Propanol, 1-Propanol] | 50 mg |
| CCC(C)O (stereo not shown) [Formulation 2-Butanol, 2-Butanol] | 50 mg |
| CCCCCCC [Heptane] | 50 mg |
| CCCCCC [Hexane] | 2.9 mg |
| COC(C)=O [Methyl acetate] | 50 mg |
| CCCCC(C)=O [Methylbutyl ketone] | 0.5 mg |
| CC1CCCCC1 [Methylcyclohexane] | 11.8 mg |
| CC(=O)CC(C)C [Methylisobutyl ketone] | 50 mg |
| CN(C)C=O [N,N-Dimethylformamide] | 8.8 mg |
| CN1CCCC1=O [N-Methylpyrrolidone] | 5.3 mg |
| C[N+](=O)[O-] [Nitromethane] | 0.5 mg |
| CCCOC(C)=O [Propyl acetate] | 50 mg |
| c1ccncc1 [Pyridine] | 2.0 mg |
| C1CCOC1 [Tetrahydrofuran] | 7.2 mg |
| c1ccc2c(c1)CCCC2 [Tetralin] | 1.0 mg |
| COC(C)(C)C [tert-Butylmethyl ether] | 50 mg |
| Xylene | 21.7 mg |
